This is an account of results in patent publication US8618289B2 (Ambit Biosciences Corporation, priority 2008, dated 2013).

SMILES strings stand for the structures. Where a name gives a salt, the structure may show the parent alone. Some results are limits rather than exact numbers.

Assay [1] concerns MEK1 phosphorylation in the A375 human melanoma cell line. Nature of the assay: cells. The note with it: A-375, read-out: pMEK IC50.
For a further assay, the system named is A375 cells. Nature of the assay: cells. The note with it: Homo sapiens, A-375, read-out: A375 Viability EC50.
Assay [2] addresses RAF kinases (Homo sapiens, UniProt P04049). Nature of the assay: biochemical.
Experimental: (§1) Competition binding assays used herein were developed, validated and performed as described in Fabian et al., Nature Biotechnology 2005, 23, 329-336. […] The liganded beads were blocked with excess biotin and washed with blocking buffer (SeaBlock (Pierce), 1% BSA, 0.05% Tween 20, 1 mM DTT) to remove unbound ligand and to reduce non-specific binding. […] Test compounds were prepared as 100× stocks in DMSO and rapidly diluted into the aqueous environment. DMSO was added to control assays lacking a test compound. Primary screen interactions were performed in polypropylene 384-well plates in a final volume of 34 μt, while Kd determinations were performed in polystyrene 96-well plates in a final volume of 135 pt. […] The kinase concentration in the eluates was measured by quantitative PCR. Each kinase was tested individually against each compound. Kds were determined using eleven serial threefold dilutions. A selectivity score, which is a quantitative measure of selectivity of a compound against a panel of enzymes, may be calculated for a compound by dividing the number of enzymes for which a compound meets a set criteria, (for example, a binding constant of 100 nM or less), by the total number of enzymes tested. […] (Note, for those compounds tested in a larger kinase panel, as indicated by an asterisk (*) next to the S35 score, the divisor is 321 (i.e. the larger panel contains 321 distinct kinases, excluding mutant variants.)).
In assay [3] the target is RAF kinases (Homo sapiens, UniProt P15056). Nature of the assay: biochemical.
RAF kinases (Homo sapiens, UniProt P15056), sequence (P15056 whole entry): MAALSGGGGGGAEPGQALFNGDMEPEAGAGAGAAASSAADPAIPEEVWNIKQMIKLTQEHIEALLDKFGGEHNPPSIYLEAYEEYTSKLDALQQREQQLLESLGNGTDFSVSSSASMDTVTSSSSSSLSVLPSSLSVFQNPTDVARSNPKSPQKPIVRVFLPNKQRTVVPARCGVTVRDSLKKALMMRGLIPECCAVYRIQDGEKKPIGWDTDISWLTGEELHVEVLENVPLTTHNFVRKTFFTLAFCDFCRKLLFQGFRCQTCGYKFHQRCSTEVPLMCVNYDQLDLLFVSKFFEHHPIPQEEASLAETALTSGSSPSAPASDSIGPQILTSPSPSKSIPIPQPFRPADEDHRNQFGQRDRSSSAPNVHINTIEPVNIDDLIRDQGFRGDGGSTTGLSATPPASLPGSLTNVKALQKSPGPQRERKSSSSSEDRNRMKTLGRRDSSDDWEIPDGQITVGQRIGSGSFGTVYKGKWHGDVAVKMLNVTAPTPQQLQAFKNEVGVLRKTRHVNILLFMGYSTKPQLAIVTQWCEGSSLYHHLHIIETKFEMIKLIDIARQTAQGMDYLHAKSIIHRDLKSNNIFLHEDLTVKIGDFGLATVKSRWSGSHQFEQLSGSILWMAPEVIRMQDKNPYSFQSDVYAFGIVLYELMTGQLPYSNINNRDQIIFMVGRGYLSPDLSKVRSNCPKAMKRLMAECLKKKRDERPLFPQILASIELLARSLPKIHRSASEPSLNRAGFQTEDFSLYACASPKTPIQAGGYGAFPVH
Experimental: as §1

RAF kinases (Homo sapiens, UniProt P04049), sequence (P04049 whole entry): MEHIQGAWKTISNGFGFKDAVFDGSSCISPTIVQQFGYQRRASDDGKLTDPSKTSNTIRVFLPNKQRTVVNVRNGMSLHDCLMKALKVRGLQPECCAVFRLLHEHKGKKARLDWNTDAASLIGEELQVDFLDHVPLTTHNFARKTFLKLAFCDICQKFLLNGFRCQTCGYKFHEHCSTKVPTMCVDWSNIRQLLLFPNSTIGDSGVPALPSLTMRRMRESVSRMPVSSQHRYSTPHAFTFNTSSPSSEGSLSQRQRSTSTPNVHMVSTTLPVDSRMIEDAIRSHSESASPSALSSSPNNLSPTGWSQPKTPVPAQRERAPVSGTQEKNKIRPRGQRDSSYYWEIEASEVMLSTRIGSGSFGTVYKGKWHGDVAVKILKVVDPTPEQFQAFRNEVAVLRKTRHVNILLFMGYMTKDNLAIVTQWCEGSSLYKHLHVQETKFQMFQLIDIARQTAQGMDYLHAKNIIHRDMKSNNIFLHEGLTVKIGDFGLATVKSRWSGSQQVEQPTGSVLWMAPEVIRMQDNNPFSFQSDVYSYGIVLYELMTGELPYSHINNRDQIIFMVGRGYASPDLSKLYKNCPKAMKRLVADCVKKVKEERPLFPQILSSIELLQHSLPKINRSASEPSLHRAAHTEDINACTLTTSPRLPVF

For the molecule `COc1cc2ncnc(Oc3cccc(NC(=O)Nc4cc(C(C)(C)C)on4)c3)c2cc1OC` [Ex 1, 1-(5-tert-butylisoxazol-3-yl)-3-(3-(6,7-dimethoxyquinazolin-4-yloxy)phenyl)urea], in assay [1], the IC50 (usually the point on the concentration scale where inhibition reaches its midpoint) is less than 0.25 µM. In addition, the EC50 – broadly, the concentration giving half of the maximal effect – in the assay on A375 cells lay in the range of 0.5 to 1 µM. At RAF kinases [2], the Kd (commonly a measure of binding affinity in units of concentration) was 0.25 to 0.5 µM.

In the case of `CCOc1cc2ncnc(Oc3cccc(NC(=O)Nc4cc(C(C)(C)C)on4)c3)c2cc1OC` [Ex 6, 1-(5-tert-butylisoxazol-3-yl)-3-[3-(7-ethoxy-6-methoxyquinazolin-4-yloxy)phenyl]urea hydrochloride], the IC50 in assay [1] is less than 0.25 µM. The EC50 with A375 cells lay in the range of 0.25 to 0.5 µM. Further, the Kd at RAF kinases [2] fell in the range of 0.5 to 1 µM.

With `COCCOc1cc2ncnc(Oc3cccc(NC(=O)Nc4cc(C(C)(C)C)on4)c3)c2cc1OC` [Ex 7, 1-(5-tert-Butylisoxazol-3-yl)-3-{3-[6-methoxy-7-(2-methoxyethoxy)quinazolin-4-yloxy]phenyl}urea hydrochloride], the IC50 in assay [1] was less than 0.25 µM. Also, in the assay with A375 cells, the EC50 was 0.25 to 0.5 µM. For the same molecule, the Kd on RAF kinases [2] and on RAF kinases [3] was 0.25 to 0.5 µM throughout.

Consider `COc1cc2ncnc(Oc3cc(NC(=O)Nc4cc(C(C)(C)C)on4)ccc3F)c2cc1OC` [Ex 9, 1-(5-tert-butylisoxazol-3-yl)-3-(3-(6,7-dimethoxyquinazolin-4-yloxy)-4-fluorophenyl)urea], for which the IC50 in assay [1] is less than 0.25 µM. Besides, in the assay on A375 cells, the EC50 was less than 0.25 µM. The molecule also had a Kd on RAF kinases [2] of 0.5 to 1 µM.

On to `CCOc1cc2c(Oc3cccc(NC(=O)Nc4cc(C(C)(C)C)on4)c3)ncnc2cc1OC` [Ex 11, 1-(5-tert-butylisoxazol-3-yl)-3-(3-(6-ethoxy-7-methoxyquinazolin-4-yloxy)phenyl)urea], for which the IC50 in assay [1] was less than 0.25 µM. Besides, the concentration for a half-maximal effect (EC50) in the assay with A375 cells is less than 0.25 µM. This molecule also displayed a Kd on RAF kinases [2] of 0.5 to 1 µM.

In the case of `COCCOc1cc2ncnc(Oc3cccc(NC(=O)Nc4cc(C(C)(C)C)on4)c3)c2cc1OCCOC` [Ex 12, 1-{3-[6,7-bis(2-methoxyethoxy)quinazolin-4-yloxy]phenyl}-3-(5-tert-butylisoxazol-3-yl)urea hydrochloride], in assay [1], the IC50 is less than 0.25 µM. The EC50 in the assay with A375 cells was 0.25 to 0.5 µM. Besides, the figures for the Kd at RAF kinases [2] and at RAF kinases [3] were 0.25 to 0.5 µM and 0.5 to 1 µM, respectively.

For the molecule `CC(C)(C)c1cc(NC(=O)Nc2cccc(Oc3ncnc4cc5c(cc34)OCCO5)c2)no1` [Ex 14, 1-(5-tert-butylisoxazol-3-yl)-3-[3-(7,8-dihydro-[1,4]dioxino[2,3-g]quinazolin-4-yloxy)phenyl]urea hydrochloride], in assay [1], the IC50 was in the range of 0.5 to 1 µM. In addition, the EC50 in the assay with A375 cells was greater than 1 µM. Further, the Kd on RAF kinases [2] fell in the range of 0.25 to 0.5 µM; on RAF kinases [3] it was 0.5 to 1 µM.

As for `COc1cc2c(Oc3cccc(NC(=O)Nc4cc(C(C)(C)C)on4)c3)ncnc2cc1OCCCN1CCN(CCO)CC1` [Ex 30, 1-(5-tert-butylisoxazol-3-yl)-3-(3-(7-(3-(4-(2-hydroxyethyl)piperazin-1-yl)propoxy)-6-methoxyquinazolin-4-yloxy)phenyl)urea], the IC50 in assay [1] is less than 0.25 µM. In the assay with A375 cells, the EC50 is less than 0.25 µM. Also, the Kd on RAF kinases [2] lay within 0.25 to 0.5 µM.

In the case of `COCCOc1ccc2ncnc(Oc3cccc(NC(=O)Nc4cc(C(C)(C)C)on4)c3)c2c1` [Ex 40, 1-(5-tert-butylisoxazol-3-yl)-3-(3-(6-(2-methoxyethoxy)quinazolin-4-yloxy)phenyl)urea], in assay [1], the IC50 is less than 0.25 µM. In addition, the EC50 in the assay with A375 cells was 0.5 to 1 µM. This molecule also registered a Kd on RAF kinases [2] of 0.25 to 0.5 µM.

In the case of `COc1cc2ncnc(Sc3cccc(NC(=O)Nc4cc(C(C)(C)C)on4)c3)c2cc1OCCN1CCCCC1` [Ex 65, 1-(5-tert-butylisoxazol-3-yl)-3-(3-(7-methoxy-6-(2-(piperidin-1-yl)ethoxy)quinazolin-4-ylthio)phenyl)urea], the IC50 in assay [1] lay within 0.25 to 0.5 µM. Also, the EC50 in the assay on A375 cells is greater than 1 µM. This molecule also had a dissociation constant Kd on RAF kinases [2] of 0.5 to 1 µM.

Consider `COc1cc2ncnc(Oc3cccc(NC(=O)Nc4cc(C(C)(C)C)on4)c3)c2cc1O[C@H]1CCN(CC(F)F)C1` [Ex 110, (S)-1-(5-tert-butylisoxazol-3-yl)-3-(3-(6-(1-(2,2-difluoroethyl)pyrrolidin-3-yloxy)-7-methoxyquinazolin-4-yloxy)phenyl)urea], for which the IC50 in assay [1] is less than 0.25 µM. The EC50 in the assay with A375 cells was less than 0.25 µM. The molecule further had a Kd at RAF kinases [3] of 0.25 to 0.5 µM.

Take `COc1cc2ncnc(Oc3cccc(NC(=O)Nc4cc(C(C)(C)C)on4)c3)c2cc1OC[C@@H](O)CN1CCN(C)CC1` [Ex 111, (S)-1-(5-tert-butylisoxazol-3-yl)-3-(3-(6-(2-hydroxy-3-(4-methylpiperazin-1-yl)propoxy)-7-methoxyquinazolin-4-yloxy)phenyl)urea]: the IC50 in assay [1] is less than 0.25 µM. For the same molecule, the half-maximal effective concentration (EC50) in the assay on A375 cells was in the range of 0.25 to 0.5 µM. In addition, the Kd at RAF kinases [3] fell in the range of 0.25 to 0.5 µM.

For the molecule `COc1cc2ncnc(Oc3cccc(NC(=O)Nc4cccc(C(C)(C)C)c4)c3)c2cc1OC` [Ex 118, 1-(3-tert-butylphenyl)-3-(3-(6,7-dimethoxyquinazolin-4-yloxy)phenyl)urea], the IC50 in assay [1] was 0.25 to 0.5 µM. For the same molecule, in the assay on A375 cells, the EC50 is greater than 1 µM. Moreover, the Kd at RAF kinases [3] was 0.25 to 0.5 µM.

Take `COc1cc2ncnc(Sc3cccc(NC(=O)Nc4cccc(C(C)(C)C)c4)c3)c2cc1OC` [Ex 120, 1-(3-tert-butylphenyl)-3-(3-(6,7-dimethoxyquinazolin-4-ylthio)phenyl)urea]: the IC50 in assay [1] lay within 0.25 to 0.5 µM. Besides, in the assay on A375 cells, the concentration giving a half-maximal response (EC50) was greater than 1 µM. Also, the equilibrium dissociation constant (Kd) on RAF kinases [3] is 0.25 to 0.5 µM.

Regarding `COc1cc2ncnc(Oc3cccc(NC(=O)Nc4cc(C(C)(C)CO)on4)c3)c2cc1OC` [Ex 131, 1-(3-(6,7-dimethoxyquinazolin-4-yloxy)phenyl)-3-(5-(1-hydroxy-2-methylpropan-2-yl)isoxazol-3-yl)urea], in assay [1], the IC50 was 0.5 to 1 µM. Further, the EC50 in the assay with A375 cells was greater than 1 µM. The molecule further had a Kd at RAF kinases [3] of 0.25 to 0.5 µM.

In the case of `COc1cc2ncnc(Oc3cccc(NC(=O)Nc4ccc(OC)c(C(F)(F)F)c4)c3)c2cc1OC` [Ex 138, 1-(3-(6,7-dimethoxyquinazolin-4-yloxy)phenyl)-3-(4-methoxy-3-(trifluoromethyl)phenyl)urea], the half-inhibitory concentration (IC50) in assay [1] lay within 0.25 to 0.5 µM. Also, the EC50 with A375 cells was greater than 1 µM. At RAF kinases [3], this molecule had a Kd of 0.25 to 0.5 µM.

Take `COc1cc2ncnc(Oc3cccc(NC(=O)Nc4cccc(C(C)C)c4)c3)c2cc1OC` [Ex 144, 1-(3-(6,7-dimethoxyquinazolin-4-yloxy)phenyl)-3-(3-isopropylphenyl)urea]: in assay [1], the IC50 was 0.25 to 0.5 µM. The EC50 in the assay on A375 cells is greater than 1 µM. The Kd at RAF kinases [3] was in the range of 0.25 to 0.5 µM.

As to `COc1cc2ncnc(Oc3cccc(NC(=O)Nc4cc(CN5CCOCC5)cc(C(F)(F)F)c4)c3)c2cc1OC` [Ex 151, 1-(3-(6,7-dimethoxyquinazolin-4-yloxy)phenyl)-3-(3-(morpholinomethyl)-5-(trifluoromethyl)phenyl)urea], the IC50 in assay [1] was greater than 1 µM. Besides, the EC50 with A375 cells is greater than 1 µM. Further, on RAF kinases [2], the Kd was 0.25 to 0.5 µM.

Take `COc1cc2ncnc(Oc3cccc(NC(=O)Nc4cc(C(C)(C)C)nn4C)c3)c2cc1OC` [Ex 158, 1-(3-tert-butyl-1-methyl-1H-pyrazol-5-yl)-3-(3-(6,7-dimethoxyquinazolin-4-yloxy)phenyl)urea]: the IC50 in assay [1] lay in the range of 0.25 to 0.5 µM. Further, in the assay with A375 cells, the EC50 was greater than 1 µM. On RAF kinases [2], this molecule came in with a Kd of 0.5 to 1 µM.

With `COc1cc2ncnc(Oc3cccc(NC(=O)Nc4cc(C(C)(CF)CF)on4)c3)c2cc1OC` [Ex 162, 1-[5-(1,3-difluoro-2-methylpropan-2-yl)isoxazol-3-yl]-3-[3-(6,7-dimethoxyquinazolin-4-yloxy)phenyl]urea], the IC50 in assay [1] was less than 0.25 µM. The concentration giving a half-maximal response (EC50) in the assay on A375 cells is less than 0.25 µM. At RAF kinases [3], this molecule showed a Kd of 0.25 to 0.5 µM.

Take `COc1cc2ncnc(Oc3cccc(NC(=O)Nc4ccc(OC(F)(F)F)cc4)c3)c2cc1OC` [Ex 177, 1-(3-(6,7-dimethoxyquinazolin-4-yloxy)phenyl)-3-(4-(trifluoromethoxy)phenyl)urea]: the IC50 in assay [1] is greater than 1 µM. In addition, the EC50 in the assay with A375 cells was greater than 1 µM. In addition, at RAF kinases [3], the dissociation constant (Kd) is 0.25 to 0.5 µM.

As to `COc1cc2ncnc(Oc3cccc(NC(=O)Nc4ccc(C(F)(F)F)cc4)c3)c2cc1OC` [Ex 183, 1-(3-(6,7-dimethoxyquinazolin-4-yloxy)phenyl)-3-(4-(trifluoromethyl)phenyl)urea], in assay [1], the IC50 lay within 0.5 to 1 µM. The EC50 with A375 cells was greater than 1 µM. The molecule also came in with a Kd on RAF kinases [3] of 0.25 to 0.5 µM.

Turning to `COc1cc2ncnc(Sc3cccc(NC(=O)Nc4cccc(C(F)(F)F)c4)c3)c2cc1OC` [Ex 185, 1-(3-(6,7-dimethoxyquinazolin-4-ylthio)phenyl)-3-(3-(trifluoromethyl)phenyl)urea], the IC50 in assay [1] lay in the range of 0.5 to 1 µM. Besides, the EC50 in the assay with A375 cells was greater than 1 µM. In addition, the Kd at RAF kinases [3] lay within 0.25 to 0.5 µM.

For the molecule `COc1cc2ncnc(Sc3cccc(NC(=O)Nc4cc(C(C)(C)F)no4)c3)c2cc1OC` [Ex 187, 1-(3-(6,7-dimethoxyquinazolin-4-ylthio)phenyl)-3-(3-(2-fluoropropan-2-yl)isoxazol-5-yl)urea], the IC50 in assay [1] is less than 0.25 µM. For the same molecule, the EC50 with A375 cells is greater than 1 µM. For the same molecule, the Kd on RAF kinases [3] was 0.25 to 0.5 µM.

As to `COc1cc2ncnc(Sc3cccc(NC(=O)Nc4cc(C(C)(CF)CF)on4)c3)c2cc1OC` [Ex 191, 1-[5-(1,3-difluoro-2-methylpropan-2-yl)isoxazol-3-yl]-3-[3-(6,7-dimethoxyquinazolin-4-ylthio)phenyl]urea], in assay [1], the IC50 is less than 0.25 µM. In addition, in the assay on A375 cells, the EC50 was less than 0.25 µM. The molecule also returned a Kd at RAF kinases [3] of 0.25 to 0.5 µM.

On to `COc1cc2ncnc(Sc3cccc(NC(=O)Nc4cc(C5CCCC5)on4)c3)c2cc1OC` [Ex 201, 1-(5-cyclopentylisoxazol-3-yl)-3-(3-(6,7-dimethoxyquinazolin-4-ylthio)phenyl)urea], for which the IC50 in assay [1] lay in the range of 0.25 to 0.5 µM. Besides, in the assay on A375 cells, the EC50 was greater than 1 µM. The Kd on RAF kinases [3] was 0.25 to 0.5 µM.

Turning to `COc1cc2ncnc(Sc3cccc(NC(=O)Nc4cc(C(C)(C)C#N)nn4-c4ccccc4)c3)c2cc1OC` [Ex 309, 1-(3-(2-cyanopropan-2-yl)-1-phenyl-1H-pyrazol-5-yl)-3-(3-(6,7-dimethoxyquinazolin-4-ylthio)phenyl)urea], the IC50 in assay [1] is less than 0.25 µM. The Kd on RAF kinases [2] and on RAF kinases [3] was 0.5 to 1 µM throughout.
